Data as given in BindingDB's records for doi:10.1016/S0960-894X(01)80104-9 (1994).

Target: T1, Thromboxane A2 receptor (Homo sapiens, UniProt P21731)
T1 sequence (P21731 whole entry): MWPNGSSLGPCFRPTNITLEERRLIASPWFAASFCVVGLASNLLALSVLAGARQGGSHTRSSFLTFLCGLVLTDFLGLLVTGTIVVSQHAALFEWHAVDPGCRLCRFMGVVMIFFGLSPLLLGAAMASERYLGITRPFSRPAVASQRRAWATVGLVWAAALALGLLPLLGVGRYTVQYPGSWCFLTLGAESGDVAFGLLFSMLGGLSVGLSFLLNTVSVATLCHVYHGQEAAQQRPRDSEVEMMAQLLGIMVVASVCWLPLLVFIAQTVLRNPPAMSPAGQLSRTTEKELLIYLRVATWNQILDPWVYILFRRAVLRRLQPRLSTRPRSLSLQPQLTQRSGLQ
Experiment: In vitro thromboxane receptor antagonist against U-46619 induced aggregation of washed human platelets

IC50 | SMILES
28 nM | O=C(O)CC/C=C\CC[C@H]1[C@@H](OCc2ccc(-c3ccccc3)cc2)CO[C@@H]1c1cccnc1 [(Z)-7-[(2S,3R,4R)-4-(Biphenyl-4-ylmethoxy)-2-pyridin-3-yl-tetrahydro-furan-3-yl]-hept-4-enoic acid]

Target: not listed separately
Experiment: In vitro thromboxane receptor antagonist against U-46619 induced aggregation of washed human platelets

SMILES | IC50
O=C(O)CCCCO/N=C(/c1cccnc1)c1cccc(C(F)(F)F)c1 [5-[Pyridin-3-yl-(3-trifluoromethyl-phenyl)-methyleneaminooxy]-pentanoic acid] | 1280 nM
O=C(O)CC/C=C\CC[C@H]1[C@H](OCc2ccc(-c3ccccc3)cc2)CO[C@H]1c1cccnc1 [(Z)-7-[(2R,3R,4S)-4-(Biphenyl-4-ylmethoxy)-2-pyridin-3-yl-tetrahydro-furan-3-yl]-hept-4-enoic acid] | 820 nM
O=C(O)CC/C=C\CC[C@@H]1[C@@H](c2cccnc2)OC[C@H]1OCc1ccc(-c2ccccc2)cc1 [(Z)-7-[(2S,3R,4S)-4-(Biphenyl-4-ylmethoxy)-2-pyridin-3-yl-tetrahydro-furan-3-yl]-hept-4-enoic acid] | 88 nM

The remaining compounds from weak to strong by IC50, led by results:

IC50 | SMILES
795 nM | O=C(O)CC/C=C\CC[C@H]1[C@@H](OCc2ccc(-c3ccccc3)cc2)CO[C@H]1c1cccnc1 [(Z)-7-[(2R,3R,4R)-4-(Biphenyl-4-ylmethoxy)-2-pyridin-3-yl-tetrahydro-furan-3-yl]-hept-4-enoic acid]
27 nM | O=C(O)CC/C=C\CC[C@H]1[C@@H](OCc2ccc(-c3ccccc3)cc2)CO[C@@H]1c1cccnc1 [(Z)-7-[(2S,3R,4R)-4-(Biphenyl-4-ylmethoxy)-2-pyridin-3-yl-tetrahydro-furan-3-yl]-hept-4-enoic acid]
